The text below walks through data of patent US20030165585A1, “Xanthine-containing compositions for oral administration and uses related thereto” (priority 2002, published 2003).

Common to all, as to type: in vivo, human
The test system of assay [1] is subjects. As to the kind of experiment: Stimulant effect: scores in video game of skill Pilot Wing before and after consuming composition. As to conditions: five subjects, crossover over three days, Formulation I vs 180 mg caffeine vs placebo. How it is done:
Five subjects were tested over a period of three days. […] Both prior to and after consuming the composition, each subject played a video game of skill called Pilot Wing™ made by Nintendo™.

For assay [2], the system named is subjects. As to the kind of experiment: Standard short-term memory test (repeating a read series of numbers backward). As to conditions: three of the five subjects; test 30 minutes after ingestion. The protocol:
The test consisted of an examiner reading a series of numbers to the subject and the subject subsequently being asked to repeat said numbers backward. In all cases, the test was initiated 30 minutes after ingestion of the composition.

The nature of assay [3]: Weight loss in overweight subjects, daily administration over two weeks. To be noted: Formulation I (ten subjects) vs 180 mg caffeine capsules (five) vs placebo (five), FIG. 1. An excerpt: Weights were averaged and weight loss was charted every three days in all groups.

For `Cn1c(=O)c2c(ncn2C)n(C)c1=O` [caffeine], the “video game scores after consuming the composition” value in the assay with subjects [1] was “higher scores after consuming the caffeine, compared to consuming the placebo”. Also, in the assay on subjects [2], the “digits repeated backwards without error” value is on record as “could not repeat this accomplishment”. The “weight loss compared between groups” value in assay [3] is on record as “not matched”.
